These are literature values, as cited in patent publication US20100210792A1, “DRUG DELIVERY” (priority 2006, published 2010).

For this data set the following is noted: Table 1 drug list.

For `CC(C)c1c(C(=O)Nc2ccccc2)c(-c2ccccc2)c(-c2ccc(F)cc2)n1CC[C@@H](O)C[C@@H](O)CC(=O)O` [Atorvastatin], the Hydrophobic entry is given as “YES”.

In the case of `CC[C@H]1OC(=O)[C@H](C)[C@@H](O[C@H]2C[C@@](C)(OC)[C@@H](O)[C@H](C)O2)[C@H](C)[C@@H](O[C@@H]2O[C@H](C)C[C@H](N(C)C)[C@H]2O)[C@](C)(OC)C[C@@H](C)C(=O)[C@H](C)[C@@H](O)[C@]1(C)O` [Clarithromycin], the Hydrophobic result is listed as “YES”.

For the molecule `COc1ccc2nc([S@@+]([O-])Cc3ncc(C)c(OC)c3C)[nH]c2c1` [Esomeprazole], the Hydrophobic entry was “YES”.

With `Cc1c(OCC(F)(F)F)ccnc1C[S+]([O-])c1nc2ccccc2[nH]1` (centres unmarked) [Lansoprazole], the Hydrophobic result was “YES”.

Regarding `OCCOCCN1CCN(C2=Nc3ccccc3Sc3ccccc32)CC1` [Quetiapine], the Hydrophobic result is on record as “YES”.

As for `Cc1nc2n(c(=O)c1CCN1CCC(c3noc4cc(F)ccc34)CC1)CCCC2` [Risperidone, 4-[2-[4-(6-fluorobenzo[d]isoxazol-3-yl)-1-piperidyl]ethyl]-3-methyl-2,6-diazabicyclo[4.4.0]deca-1,3-dien-5-one], the Hydrophobic entry was “YES”.

On to `CC(C)c1nc(N(C)S(C)(=O)=O)nc(-c2ccc(F)cc2)c1/C=C/[C@@H](O)C[C@@H](O)CC(=O)O` [Rosuvastatin], for which the Hydrophobic result was “YES”.

`CN[C@H]1CC[C@@H](c2ccc(Cl)c(Cl)c2)c2ccccc21` [Sertradine]: the Hydrophobic result is “YES”.
